Measured values taken from patent US6774235B2, “Trisubstituted 1,3,5-triazine derivatives” (Janssen Pharmaceutica N.V., priority 1998, dated 2004).

What was measured:
HIV-1 (wildtype IIIB) = assay: microbe, parasite or virus in culture; format: cell-based; conditions: Human immunodeficiency virus 1, MT4; dose achieving 50% protection of HIV-1 (IIIB) infected MT-4 cells, MTT, OD 540 nm
Description: (§1) A rapid, sensitive and automated assay procedure was used for the in vitro evaluation of anti-HIV agents. An HIV-1 (wildtype IIIB) transformed T4-cell line, MT-4, which was previously shown (Koyanagi et al., Int. J Cancer, 36, 445-451, 1985) to be highly susceptible to and permissive for HIV infection, served as the target cell line. Inhibition of the HIV-induced cytopathic effect was used as the end point. […] The percent protection achieved by the compound in HIV-infected cells was calculated by the following formula: [formula]
(§2) whereby (ODT)HIV is the optical density measured with a given concentration of the test compound in HIV-infected cells; (ODC)HIV is the optical density measured for the control untreated HIV-infected cells; (ODC)MOCK is the optical density measured for the control untreated mock-infected cells; all optical density values were determined at 540 nm. […] The ratio of CC50 to IC50 was defined as the selectivity index (SI).

[1] = Cytotoxicity in mock-infected MT-4 cells (MTT); conditions: human, mock-infected MT-4 cells
Description: as §1, §2

Structure (SMILES)	IC50 (HIV-1 (wildtype IIIB))	CC50 [1]
Cc1cc(Br)cc(Cl)c1Oc1nc(N)nc(Nc2ccc(C#N)cc2)n1 [Compound 33, 4-[[4-amino-6-(4-bromo-2-chloro-6-methylphenoxy)-1,3,5-triazin-2-yl]amino]benzonitrile]	2 nM	> 10000 nM
CC(C)c1cc(Br)c(Nc2nc(N)nc(Nc3ccc(C#N)cc3)n2)c(Br)c1 [Compound 77, 4-[[4-amino-6-[[2,6-dibromo-4-(1-methylethyl)phenyl]amino]-1,3,5-triazin-2-yl]-amino]benzonitrile]	3 nM	47000 nM
N#Cc1ccc(Nc2nc(NO)nc(Nc3c(Cl)cc(Cl)cc3Cl)n2)cc1 [Compound 23, 4-[[4-(hydroxyamino)-6-[(2,4,6-trichlorophenyl)amino]-1,3,5-triazin-2-yl]amino]-benzonitrile]	1 nM	7600 nM
N#Cc1ccc(Nc2nc(N)nc(Oc3cccc4[nH]ccc34)n2)cc1 [Compound 83]	473 nM	59600 nM
N#Cc1ccc(Nc2nc(N)nc(Sc3ccc(Cl)cc3Cl)n2)cc1 [Compound 54, 4-[[4-amino-6-[(2,4-dichlorophenyl)thio]-1,3,5-triazin-2-yl]amino]benzonitrile]	4 nM	57300 nM
N#Cc1ccc(Nc2nc(N)nc(Nc3c(Cl)cc(Cl)cc3C(F)(F)F)n2)cc1 [Compound 71, 4-[[4-amino-6-[[2,4-dichloro-6-(trifluoromethyl)phenyl]amino]-1,3,5-triazin-2-yl]-amino]benzonitrile]	10 nM	8200 nM
N#Cc1ccc(Nc2nc(N)nc(Sc3c(Cl)cccc3Cl)n2)cc1 [Compound 19, 4-[[4-amino-6-[(2,6-dichlorophenyl)thio]-1,3,5-triazin-2-yl]amino]benzonitrile]	4 nM	40600 nM
Cc1cc(C)c(Nc2nc(NO)nc(Nc3ccc(C#N)cc3)n2)c(C)c1 [Compound 11, 4-[[4-(hydroxyamino)-6-[(2,4,6-trimethylphenyl)amino]-1,3,5-triazin-2-yl]amino]-benzonitrile]	1 nM	6300 nM
CC(=O)c1cc(C)c2c(c1Oc1nc(N)nc(Nc3ccc(C#N)cc3)n1)CCC2 [Compound 84, 4-[[4-[(5-acetyl-2,3-dihydro-7-methyl-1H-inden-4-yl)oxy]-6-amino-1,3,5-triazin-2-yl]amino]benzonitrile]	1 nM	54100 nM
CCc1cccc(C)c1Nc1nc(N)nc(Nc2ccc(C#N)cc2)n1 [Compound 16, 4-[[4-amino-6-[(2-ethyl-6-methylphenyl)amino]-1,3,5-triazin-2-yl]amino]benzonitrile]	6 nM	8100 nM
CC(=O)c1cc(C)c(Oc2nc(N)nc(Nc3ccc(C#N)cc3)n2)c(C)c1 [Compound 35, 4-[[4-(4-acetyl-2,6-dimethylphenoxy)-6-amino-1,3,5-triazin-2-yl]amino]benzonitrile]	1 nM	32100 nM
